The results in this text go back to patent publication US6855730B2, “3-methylidenyl-2-indolinone modulators of protein kinase” (Sugen, Inc., priority 1998, dated 2005).

The target of one experiment is T1, PDGFR-β (Homo sapiens, UniProt P09619).
T1 construct: host or cells: NIH 3T3
The experiment is described as follows: Biochemical PDGFR assay (ELISA, PDGFR-β expressing NIH 3T3 cell lysate). The following applies: read-out: bio PDGF IC50. The source says: This assay measures the in vitro kinase activity of PDGFR using ELISA.
Unless otherwise noted, the preparation of working solution-of the following reagents is the same as that for the Biochemical EGFR assay, above. • 1. […] 28D4C10 monoclonal anti-PDGFR antibody (Biochemistry Lab, SUGEN, Inc.). • 3. PBS (Dulbecco's Phosphate-Buffered Saline, Gibco Catalog No. 450-1300EB) • 4. TBST Buffer. • 5. Blocking Buffer. • 6. PDGFR-β expressing NIH 3T3 cell lysate (Screening Lab, SUGEN, Inc.). • 7. TBS Buffer. • 8. TBS+10% DMSO. • 9. […] MnCl2. • 11. Kinase buffer phosphorylation mix.
• 12. NUNC 96-well V bottom polypropylene plates (Applied Scientific Cat. No. AS-72092). • 13. Ethylenediaminetetraacetic acid (EDTA). • 14. Rabbit polyclonal anti-phosphotyrosine serum (Biochemistry Lab, SUGEN, Inc.). • 15. Goat anti-rabbit IgG peroxidase conjugate (Biosource Cat. No. ALI0404). • 16. 2,2′-azino-bis(3-ethylbenzthiazoline-6-sulfonic acid) (ABTS, Sigma Cat. No. A-1888). • 17. Hydrogen peroxide 30% solution (Fisher Cat. No. H325). • 18. ABTS/H2O2. • 19. 0.2 M HCl.
Procedure • 1. Coat Corning 96 well ELISA plates with 0.5 μg 28D4C10 in 100 μl PBS per well, store overnight at 4° C. • 2. Remove unbound 28D4C10 from wells by inverting plate to remove liquid. Wash 1× with dH2O. Pat the plate on a paper towel to remove excess liquid. • 3. Add 150 μl of Blocking Buffer to each well. Incubate for 30 min. at room temperature with shaking. • 4. Wash plate 3× with deionized water, then once with TBST. Pat plate on a paper towel to remove excess liquid and bubbles. • 5. Dilute lysate in HNTG (10 μg lysate/100 μl HNTG) • 6. Add 100 μl of diluted lysate to each well. Shake at room temperature for 60 min. • 7. Wash plates as described in 4, above. • 8. Add 80 μl working kinase buffer mix to ELISA plate containing captured PDGFR. • 9. Dilute test compound 1:10 in TBS in 96-well polypropylene plates (i.e., 10 μl compound+90 μl TBS). • 10. Add 10 μl diluted test compound to ELISA plate. […] Incubate for 30 minutes while shaking at room temperature. • 12. Add 10 μl ATP directly to all wells except negative control well (final well volume should be approximately 100 μl with 20 μM ATP in each well.) Incubate 30 minutes while shaking. • 13. After 30 minutes, stop reaction by adding 10 μl of 200 mM EDTA (pH 8.0) to each well. • 14. Wash 4× with deionized water, twice with TBST. • 15. Add 100 μl anti-phosphotyrosine (1:3000 dilution in TBST) per well. Incubate 30-45 min. at room temperature, with shaking. • 16. Wash as described in 4, above. • 17. Add 100 μl Biosource Goat anti-rabbit IgG peroxidase conjugate (1:2000 dilution in TBST) to each well. Incubate 30 min. at room temperature, with shaking. • 18. Wash as described in 4, above. • 19. Add 100 μl of ABTS/H2O2 solution to each well. • 20. Incubate 10 to 30 minutes with shaking. Remove any bubbles. • 21. If necessary stop reaction with the addition of 100 μl 0.2 M HCl per well. • 22. Read assay on Dynatech MR7000 ELISA reader: test filter: 410 nM, reference filter: 630 nM.

A further experiment has as its target EGFR (Homo sapiens, UniProt P00533). The experiment is described as follows: Biochemical EGFR assay (ELISA, A431 cell lysate). The following applies: read-out: bio EGFr IC50. More on the design: A431 cell lysate (Screening Lab, SUGEN, Inc.); host or cells: A431. The method, then: This assay measures the in vitro kinase activity of EGFR using ELISA.
Materials and Reagents • 1. […] SUMO1 monoclonal anti-EGFR antibody (Biochemistry Lab, SUGEN, Inc.). • 3. PBS (Dulbecco's Phosphate-Buffered Saline, Gibco Catalog No. 450-1300EB). • 4. TBST Buffer
• 6. A431 cell lysate (Screening Lab, SUGEN, Inc.) • 7. TBS Buffer:
Prepare a 1.0 mM solution in dH2O. This reagent should be made up immediately prior to use and kept on ice. • 10. MnCl2.
Prepare a 1.0 M stock solution in dH2O. • 11. ATP/MnCl2 phosphorylation mix
This reagent should be prepared immediately before use and kept on ice. • 12. NUNC 96-well V bottom polypropylene plates (Applied Scientific Cat. No. AS-72092). • 13. Ethylenediaminetetraacetic acid (EDTA)
Prepare 200 mM working solution in dH2O. Adjust to pH 8.0 with 10 N NaOH. • 14. Rabbit polyclonal anti-phosphotyrosine serum (Biochemistry Lab, SUGEN, Inc.) • 15. Goat anti-rabbit IgG peroxidase conjugate (Biosource Cat. No. ALI0404) • 16. ABTS (2,2′-azino-bis(3-ethylbenzthiazoline-6-sulfonic acid), Sigma Cat. No. A-1888).
Mix first two ingredients in about 900 ml dH2O, adjust pH to 4.0 with phosphoric acid. Add ABTS, cover, let sit about 0.5 hr., filter. The solution should be kept in the dark at 4° C. until ready to use. • 17. Hydrogen peroxide 30% solution (Fisher Cat. No. H325) • 18. ABTS/H2O2 • Mix 15 ml ABTS solution and 2.0 μl H2O2. Prepare 5 minutes before use. • 19. 0.2 M HCl
Procedure • 1. Coat Corning 96 well ELISA plates with 0.5 μg SUMO1 in 100 μl PBS per well, store overnight at 4° C. • 2. Remove unbound SUMO1 from wells by inverting plate to remove liquid., Wash 1× with dH2O. Pat the plate on a paper towel to remove excess liquid. • 3. Add 150 μl of Blocking Buffer to each well. Incubate for 30 min. at room temperature with shaking. • 4. Wash plate 3× with deionized water, then once with TBST. Pat plate on a paper towel to remove excess liquid and bubbles. • 5. Dilute lysate in PBS (7 μg lysate/100 μl PBS). • 6. Add 100 μl of diluted lysate to each well. Shake at room temperature for 60 min. • 7. Wash plates as described in 4, above. • 8. Add 120 μl TBS to ELISA plate containing captured EGFR. • 9. Dilute test compound 1:10 in TBS in 96-well polypropylene plates (i.e. 10 μl compound+90 μl TBS). • 10. Add 13.5 μl diluted test compound to ELISA plate. […] Incubate for 30 minutes while shaking at room temperature. • 12. […] After 5 minutes, stop reaction by adding 16.5 μl of 200 mM EDTA (pH 8.0) to each well, shaking continuously. After the EDTA has been added, shake for 1 min. • 14. Wash 4× with deionized water, twice with TBST. • 15. Add 100 μl anti-phosphotyrosine (1:3000 dilution in TBST) per well. Incubate 30-45 min. at room temperature, with shaking. • 16. Wash as described in 4, above. • 17. Add 100 μl Biosource Goat anti-rabbit IgG peroxidase conjugate (1:2000 dilution in TBST) to each well. Incubate 30 min. at room temperature, with shaking. • 18. Wash as described in 4, above. • 19. Add 100 μl of ABTS/H2O2 solution to each well. • 20. Incubate 5 to 10 minutes with shaking. Remove any bubbles. • 21. If necessary stop reaction with the addition of 100 μl 1 0.2 M HCl per well. • 22. Read assay on Dynatech MR7000 ELISA reader. Test Filter: 410 nM Reference Filter: 630 Nm.
For orientation: ELISA stands for enzyme-linked immunosorbent assay.

T1 sequence (P09619 33-1106): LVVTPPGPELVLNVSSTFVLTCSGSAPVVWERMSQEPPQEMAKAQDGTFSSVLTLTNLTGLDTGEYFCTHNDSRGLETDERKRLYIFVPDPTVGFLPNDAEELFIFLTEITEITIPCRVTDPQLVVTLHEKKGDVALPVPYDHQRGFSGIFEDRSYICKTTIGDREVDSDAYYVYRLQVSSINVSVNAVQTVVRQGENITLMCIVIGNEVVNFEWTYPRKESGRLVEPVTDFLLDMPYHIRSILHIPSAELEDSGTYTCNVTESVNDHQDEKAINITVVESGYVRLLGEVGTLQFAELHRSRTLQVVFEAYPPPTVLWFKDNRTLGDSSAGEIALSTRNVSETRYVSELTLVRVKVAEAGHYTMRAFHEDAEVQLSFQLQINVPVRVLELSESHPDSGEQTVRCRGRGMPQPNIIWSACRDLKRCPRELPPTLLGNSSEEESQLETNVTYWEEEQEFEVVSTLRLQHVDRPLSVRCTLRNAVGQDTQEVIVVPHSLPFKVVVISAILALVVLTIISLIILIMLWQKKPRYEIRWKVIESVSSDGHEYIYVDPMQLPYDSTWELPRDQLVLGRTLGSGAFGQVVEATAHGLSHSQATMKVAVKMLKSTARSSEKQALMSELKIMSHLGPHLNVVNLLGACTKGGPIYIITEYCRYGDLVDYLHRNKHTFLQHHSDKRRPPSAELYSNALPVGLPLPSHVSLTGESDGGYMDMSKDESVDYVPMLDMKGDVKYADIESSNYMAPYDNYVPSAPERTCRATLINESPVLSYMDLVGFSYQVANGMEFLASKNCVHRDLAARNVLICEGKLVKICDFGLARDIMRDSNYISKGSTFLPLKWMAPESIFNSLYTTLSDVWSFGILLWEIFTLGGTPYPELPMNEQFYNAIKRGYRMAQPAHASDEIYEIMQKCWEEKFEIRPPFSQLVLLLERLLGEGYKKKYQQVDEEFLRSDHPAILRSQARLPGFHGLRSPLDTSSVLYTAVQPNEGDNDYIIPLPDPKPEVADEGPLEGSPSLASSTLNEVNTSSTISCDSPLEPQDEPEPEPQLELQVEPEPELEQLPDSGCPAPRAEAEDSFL
Chain of EGFR (P00533 25-1210): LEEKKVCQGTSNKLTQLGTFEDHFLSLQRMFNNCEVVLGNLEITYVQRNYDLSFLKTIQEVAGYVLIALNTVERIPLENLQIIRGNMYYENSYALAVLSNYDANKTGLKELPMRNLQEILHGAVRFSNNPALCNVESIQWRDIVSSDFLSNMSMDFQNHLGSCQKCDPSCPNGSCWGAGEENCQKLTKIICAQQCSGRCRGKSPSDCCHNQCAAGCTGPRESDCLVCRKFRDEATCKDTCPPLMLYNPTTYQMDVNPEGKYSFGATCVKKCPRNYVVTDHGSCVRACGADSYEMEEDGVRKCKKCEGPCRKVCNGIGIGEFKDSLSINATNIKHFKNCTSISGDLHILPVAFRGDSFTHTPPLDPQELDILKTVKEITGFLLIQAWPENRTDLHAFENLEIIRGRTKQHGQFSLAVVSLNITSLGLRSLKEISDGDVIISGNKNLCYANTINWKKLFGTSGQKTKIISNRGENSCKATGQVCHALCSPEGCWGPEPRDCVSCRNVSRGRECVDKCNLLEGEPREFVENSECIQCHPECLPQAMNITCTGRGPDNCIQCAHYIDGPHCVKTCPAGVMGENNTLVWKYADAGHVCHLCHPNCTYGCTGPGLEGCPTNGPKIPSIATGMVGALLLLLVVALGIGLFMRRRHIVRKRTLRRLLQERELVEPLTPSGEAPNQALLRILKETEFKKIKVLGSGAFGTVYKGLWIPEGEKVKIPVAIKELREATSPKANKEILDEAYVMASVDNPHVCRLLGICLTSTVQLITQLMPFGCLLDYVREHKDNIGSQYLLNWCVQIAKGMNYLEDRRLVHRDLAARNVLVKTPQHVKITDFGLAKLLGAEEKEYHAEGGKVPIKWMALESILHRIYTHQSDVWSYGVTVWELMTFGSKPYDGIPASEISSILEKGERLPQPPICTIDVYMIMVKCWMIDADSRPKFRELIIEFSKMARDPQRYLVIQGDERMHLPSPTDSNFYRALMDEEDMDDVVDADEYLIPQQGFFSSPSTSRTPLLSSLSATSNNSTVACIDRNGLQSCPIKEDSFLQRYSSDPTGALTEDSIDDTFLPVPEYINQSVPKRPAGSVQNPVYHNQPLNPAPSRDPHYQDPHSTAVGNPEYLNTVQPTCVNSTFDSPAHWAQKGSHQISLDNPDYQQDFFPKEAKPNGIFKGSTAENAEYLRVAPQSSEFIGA

By IC50 is commonly meant the concentration at which inhibition is half-maximal. On to `CCOC(=O)c1c(C)[nH]c(/C=C2\C(=O)Nc3ccc(C(=O)O)cc32)c1CCCN1CCN(C)CC1` [Compound 129, 3-{4-Ethoxycarbonyl-5-methyl-3-(3-(4-methyl-piperazin-1-yl)-propyl]-1H-pyrrol-2-ylmethylene)-2-oxo-2,3-dihydro-1H-indole-5-carboxylic acid], for which, on PDGFR-β, the IC50 was 31.7 µM. Same read-out and setting: under `CCOC(=O)c1c(C)[nH]c(/C=C2\C(=O)Nc3ccc(C(=O)O)cc32)c1CCCN1CCOCC1` [Example 125, 3-[4-Ethoxycarbonyl-5-methyl-3-(3-morpholin-4-ylpropyl)-1H-pyrrol-2-ylmethylene]-2-oxo-2,3-dihydro-1H-indole-5-carboxylic acid] stands 5.73 µM; under `CCOC(=O)c1c(C)[nH]c(/C=C2\C(=O)Nc3ccc(OC)cc32)c1CCCN1CCCC1` [Example 127, 5-(5-Methoxy-2-oxo-1,2-dihydroindol-3-ylidenemethyl)-2-methyl-4-(3-pyrrolidin-1-ylpropyl)-1H-pyrrole-3-carboxylic acid ethyl ester], 0.96 µM. Same read-out and setting: the result for `CCOC(=O)c1c(C)[nH]c(/C=C2\C(=O)Nc3ccc(C(=O)O)cc32)c1CCCN1CCCC1` [Example 128, 3-[4-Ethoxycarbonyl-5-methyl-3-(3-pyrrolidin-1-ylpropyl)-1H-pyrrol-2-ylmethylene]-2oxo-2,3-dihydro-1H-indole-5-carboxylic acid] reads 17.1 µM; that for `CCOC(=O)c1c(C)[nH]c(/C=C2\C(=O)Nc3ccc(C(=O)O)cc32)c1CCCN(C)C` [Example 134, 3-[3-(3-Dimethylaminopropyl)-4-ethoxycarbonyl-5-methyl-1H-pyrrol-2-ylmethylene]-2-oxo-2,3-dihydro-1H-indole-5-carboxylic acid], 4.88 µM. In the case of `CCOC(=O)c1c(C)[nH]c(/C=C2\C(=O)Nc3cccc(CCO)c32)c1CCCN(C)C` [Example 135, 4-(3-Dimethylaminopropyl)-5-[4-(2-hydroxyethyl)-2-oxo-1,2-dihydroindol-3-ylidenemethyl]-2-methyl-1H-pyrrole-3-carboxylic acid ethyl ester], the IC50 on EGFR was found to be 0.19 µM; on PDGFR-β it was 0.5 µM. The like results for `O=C(O)CCc1c(C=C2C(=O)Nc3cc(N4CCOCC4)ccc32)[nH]c2c1CCCC2` [Example 209, 3-[2-(6-Morpholin-4-yl-2-oxo-1,2-dihydroindol-3-ylidenemethyl)-4,5,6,7-tetrahydro-1H-indol-3-yl]-propionic acid] were, in that order, > 100 µM and 84.6 µM.
